Experiments:
Type in all cases: in vivo, Balb/c female mice
[1] = system: inflammatory cells in the airway mucosa; assay: Inflammatory cell infiltration in airway mucosa, inflammatory index (H&E staining); conditions: asthma-induced mice, homoegonol study, scale 0-4
Experimental: (§1) To prepare bronchial asthma-induced experimental animals, six-week-old Balb/c female mice of mean weight about 20 g were used. After one week of adaptation, individuals which had no observed abnormality on a basic physical examination were targeted. 200 μL of phosphate buffered saline (PBS)(pH 7.4) in which 2 mg of aluminum hydroxide (A8222, Sigma, St. Louis, Mo.) and 20 μg of ovalbumin (A5503, Sigma, St. Louis, Mo.) were suspended was injected into the peritoneal cavity at two-week intervals to result in sensitization. On days 28 to 30 after the first intraperitoneal administration of ovalbumin, inhalation challenge was performed for 30 min with 1% ovalbumin using an ultrasonic atomizer. 24 hours after the last antigen administration, airway hyperresponsiveness was measured. After 24 hours, a lethal dose of pentobarbital (Entobar®, Hanlim Pharm Co., Ltd.) was administered, body weight measurement and bronchotomy were performed, and bronchoalveolar lavage was performed with a total 1.2 mL of physiological saline, and then, samples were collected. […] Eight white mice were used for each group. Experimental groups for homoegonol were a group (hE7.5) in which animals were orally administered with 7.5 mg/kg homoegonol 1 hour prior to ovalbumin inhalation, a group (hE15) in which animals were orally administered with 15 mg/kg homoegonol 1 hour prior to ovalbumin inhalation, and a group (hE30) in which animals were orally administered with 30 mg/kg homoegonol 1 hour prior to ovalbumin inhalation, and five white mice were used for each group.
Lungs removed from each individual were subjected to conventional formalin fixation and paraffin embedding, and permanent section slides of 4 μm thickness were prepared, and hematoxylin and eosin (H&E) staining was performed. After H&E staining, inflammatory index was measured from random five regions per section slide of each individual to calculate the mean value. Assessments were as follows: inflammatory index 0 is for the case that inflammatory cells are not observed around the bronchus; inflammatory index 1 is for the case that inflammatory cells are intermittently observed; inflammatory index 2 is for the case that thin inflammatory cell layers of one to two or three layers are observed around most of the bronchus; inflammatory index 3 is for the case that inflammatory cell layers of two or three to five or less layers are observed around most of the bronchus; and inflammatory index 4 is for the case that thick inflammatory cell layers of five or more layers are observed around most of the bronchus.
To examine the effect of homoegonol on asthma, lungs of which bronchoalveolar lavage was not performed were removed, and histopathological assessment was performed according to the method in <Experimental Example 7-1>. Since infiltration of inflammatory cells which are comprised of eosinophils, neutrophils, and macrophages are observed in an antigen-aroused bronchus, the present inventors tried to detect inflammatory cell infiltration.

ovalbumin-specific IgE = assay: IgE levels in serum and bronchoalveolar lavage fluid (ELISA); conditions: asthma-induced mice, homoegonol study; for Total serum IgE level: Table 2
Experimental: as §1
To measure serum and bronchoalveolar lavage fluid ovalbumin-specific IgE levels caused by administration of styraxlignolide A, an immunoenzyme technique was used. 20 μg/mL of ovalbumin was dissolved in a 0.1 M NAHCO3 buffer (pH 8.3), and was placed into a 96-well flat bottom ELISA plate to be coated at 4° C. overnight. Non-specific binding was blocked with PBS containing 1% bovine serum albumin, and a serum sample was diluted 1:400 and was allowed to react at room temperature for 2 hours. Then, the plate was washed well, and anti-mouse IgE monoclonal antibody was diluted 1:300 and was allowed to react for 2 hours. Then, HRP-conjugated goat anti-rat IgG polyclonal antibody which was coupled to peroxidase was diluted 1:4000 and was allowed to react at room temperature for 1 hour, and then, was washed. For color development, 3,3′,5,5′-tetramethylbezidine substrate was allowed to react, and the spectroscopic absorbance was measured at 650 nm.
To measure IgE levels which are correlated with severity of asthma to examine the effect of homoegonol on asthma, IgE levels in serum and bronchoalveolar lavage fluid were measured according to the method in <Experimental Example 4>.

[2] = system: fibrosis in subsegmental bronchi; assay: Fibrosis in subsegmental bronchi (Masson's trichrome staining); conditions: asthma-induced mice, homoegonol study; 30 mg/kg PO
Experimental: as §1

Question: With `COc1ccc(-c2cc3cc(CCCO)cc(OC)c3o2)cc1OC` [homoegonol] as the compound, how does the “Inflammatory index, peribronchiolar” value ([1]; 7.5 mg/kg PO, 7.5 mg/kg) read?
Answer: 1.67±0.1491

Question: What about the “Inflammatory index, perivascular” value ([1]; 7.5 mg/kg PO, 7.5 mg/kg) of the same compound?
Answer: 1.89±0.1791

Question: And the “Inflammatory index, peribronchiolar” value ([1]; 15 mg/kg PO, 15 mg/kg)?
Answer: 1.40±0.1549

Question: And the “Inflammatory index, perivascular” value ([1]; 15 mg/kg PO, 15 mg/kg)?
Answer: 1.70±0.1449

Question: What about the “Inflammatory index, peribronchiolar” value ([1]; 30 mg/kg PO, 30 mg/kg) of the same compound?
Answer: 1.00±0.2449

Question: And the “Inflammatory index, perivascular” value ([1]; 30 mg/kg PO, 30 mg/kg)?
Answer: 1.30±0.2025

Question: What about the “Total IgE level in bronchoalveolar lavage fluid” value (shortened to “Total IgE level”) (ovalbumin-specific IgE; 7.5 mg/kg PO, 7.5 mg/kg) of the same compound?
Answer: 65.5957 ± 11.6656 ng/mL

Question: And the “serum IgE levels” value (ovalbumin-specific IgE; 7.5 mg/kg PO)?
Answer: 19.22 ± 4.9287 µg/mL

Question: And the “Total serum IgE level” value (ovalbumin-specific IgE; 7.5 mg/kg PO)?
Answer: 10.34 ± 6.0548 µg/mL

Question: What about the “Total IgE level” value (ovalbumin-specific IgE; 15 mg/kg PO, 15 mg/kg) of the same compound?
Answer: 48.4894 ± 4.1926 ng/mL

Question: And the “serum IgE levels” value (ovalbumin-specific IgE; 15 mg/kg PO)?
Answer: 10.74 ± 3.4612 µg/mL

Question: What about the “Total serum IgE level” value (ovalbumin-specific IgE; 15 mg/kg PO) of the same compound?
Answer: 9.94 ± 5.0656 µg/mL

Question: What about the “Total IgE level” value (ovalbumin-specific IgE; 30 mg/kg PO, 30 mg/kg) of the same compound?
Answer: 23.8085 ± 3.3515 ng/mL

Question: And the “serum IgE levels” value (ovalbumin-specific IgE; 30 mg/kg PO)?
Answer: 8.14 ± 5.9682 µg/mL

Question: And the “Total serum IgE level” value (ovalbumin-specific IgE; 30 mg/kg PO)?
Answer: 8.62 ± 2.4844 µg/mL

Question: What about the “area of a fibrosis stained region per 100 μm of a basement membrane perimeter” value [2] of the same compound?
Answer: 320.99 ± 46.2236 μm^2/100 μm of basement membrane

Source: patent US8980846B2, “Composition containing styraxlignolide A or the aglycone thereof as an active ingredient for preventing or treating asthma” (Korea Research Institute of Bioscience and Biotechnology, priority 2010, dated 2015)
